Assay results as given in article PMC10641921, “Optimization of mTOR Inhibitors Using Property-Based Drug Design and Free–Wilson Analysis for Improved In Vivo Efficacy” (ACS Medicinal Chemistry Letters, 2023).
Where two headings read alike, the source gives them in different places.

Columns and labels:
[1] = system: pAKT-S473 in PC-3 cells (TORC2); experiment: Cellular p-AKT (ser473) AlphaScreen assay in PC-3 cells (TORC2 activity); assay type: cell-based, human
Procedure: The target product profile for 1 and the next-generation analogs described here was for a dual inhibitor against both TORC1 and TORC2.
FRAP1 (mTOR) recombinant protein and GFP-4E-BP1 were purchased from Invitrogen (Carlsbad, CA, US).
The kinase activity assay was conducted in 50 mM Hepes buffer containing 10 mM MgCl2, 0.01% Brij, 0.2 mM EDTA, 2 mM DTT and 1% DMSO (after compound addition) at pH 7.3.
The IC50 value for each compound was determined in the presence of compound (various concentrations, from 0 to 10 μM) and a fixed amount of ATP (50 μM, final concentration), substrate GFP-4E-BP1 (400 nM, final concentration). The enzymatic reaction was initiated by adding FRAP1 (mTOR) (2 nM, final concentration). The assay was conducted at room temperature (~22 °C). After 30 min, the enzymatic reaction was stopped using Tb-anti-p4E-BP1 (2 nM final concentration, Invitrogen) and EDTA (20 mM final concentration, Sigma) in TR-FRET dilution buffer provided by Invitrogen. All the reagents were dispensed using a Multidrop Combi reagent dispenser (ThermoFisher Scientific, Waltham, […]
The release of product was detected using a BMG PHERAstar plate reader (BMG LABTECH, Ortenberg, Germany) and the Lantha Screen module (337 nm excitation wavelength) and measuring the ratio of fluorescence 520/490 nm (emission wavelengths). Experimental data was fitted using Eq. (1):
Vi and Vo are the rates of the enzyme activity in the presence and in the absence of inhibitor; n is the Hill coefficient; I is the free inhibitor concentration; IC 50 is a measure of potency that is equivalent to a […]
Cellular p-AKT (ser473) assay in PC-3 cells
PC-3 cells (PTEN deleted, human prostate cell line) were maintained in F12K media with 10% heat-inactivated fetal bovine serum (FBS) in 37 °C, 5% CO2 incubator. This method describes the procedure […]
from Perkin Elmer (catalog# TGRAS500). On day 1, 50,000 PC-3 cells were plated in 160 µL complete […]
Plates were placed in 37 °C, 5%
CO2 incubator for 24 h. On day 2, all media was removed and replaced with 160 µL starvation media which is F12K media (no FBS) and 0.1% BSA. Plates are placed in 37 °C, 5% CO2 incubator for 16 h. On day 3, compounds were both solubilized and serially diluted in DMSO and added to a secondary plate containing starvation media. 40 µL of compound/starvation media were added to the 160 µL in cell plate and plates were placed back in the incubator for 1 h. Cells were then activated by adding 22 µL FBS (for a final concentration of 10% FBS) for 10 min in the incubator. Media was removed from the well and cells were lysed in 100 µL SureFire kit lysis buffer and then shake n for 15 min at 900 rpm. AlphaScreen […]
assay was performed according to manufacturer’s instructions. 4 µL of lysate was added to PerkinElmer 96-well Proxiplate then 5 µL of Reaction Buffer plus Activation Buffer. Plates were shaken for 2 h at room temperature. 2 µL of Donor Beads in Dilution Buffer were added to the plate and the plate was shaken for 2 h at room temperature. The plate was read using BMG Labtech PHERAstar using AlphaScreen settings. Each analog was run in duplicate wells and a single IC50 value was calculated in […]

PI3Kα = PI3Kα enzyme selectivity (PI3Kα IC50 over mTOR IC50); assay type: biochemical; settings: ratio of PI3Kα enzyme IC50 over mTOR enzyme IC50
[2] = Human liver microsome intrinsic clearance; assay type: in vitro ADME; settings: apparent intrinsic clearance, scaled
Rat PK (iv and po) = assay type: in vivo; settings: for bioavailability: in vivo, 4 mg/kg; for bioavailability / Cl / Vd: iv 1 mpk; for bioavailability / Cmax: po 4 mpk in 0.5% methylcellulose; for frac. abs.: estimated from %F, Cl and Qh = 70 mL min^–1 kg^–1
Source text: This was an early indication that the strategy of increasing potency while lowering lipophilicity would allow us to meet our goal of improving prospects for favorable PK and dose.

[3] = system: CYP 2C8, 1A2, 2C9, 2C19, 2D6 and 3A4; experiment: CYP inhibition, all isoforms tested; assay type: in vitro ADME; settings: human
Source text: We also desired to remove the aniline structural alert present in the aryl urea moiety, which has been associated with idiosyncratic adverse drug reactions.[16]

CYP2C8 = target: T1, CYP2C8 (Homo sapiens, UniProt P10632); experiment: CYP inhibition, 2C8; assay type: in vitro ADME; settings: most potently inhibited CYP isoform
T1 sequence (P10632 1-490): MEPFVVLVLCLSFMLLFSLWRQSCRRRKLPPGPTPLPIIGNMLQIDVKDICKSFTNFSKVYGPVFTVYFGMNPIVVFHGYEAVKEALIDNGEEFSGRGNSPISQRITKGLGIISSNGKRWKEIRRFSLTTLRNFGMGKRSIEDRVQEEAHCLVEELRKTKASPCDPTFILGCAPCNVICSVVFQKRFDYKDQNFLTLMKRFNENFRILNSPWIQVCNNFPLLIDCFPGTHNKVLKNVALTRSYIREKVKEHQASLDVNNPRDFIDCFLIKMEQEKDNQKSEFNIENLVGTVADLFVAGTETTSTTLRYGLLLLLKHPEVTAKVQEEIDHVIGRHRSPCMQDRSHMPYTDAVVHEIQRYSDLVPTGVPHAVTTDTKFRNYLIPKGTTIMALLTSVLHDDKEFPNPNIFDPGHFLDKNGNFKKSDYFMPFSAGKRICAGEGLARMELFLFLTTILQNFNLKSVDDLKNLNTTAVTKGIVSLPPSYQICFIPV

CYP-2C9 = CYP-2C9 (Homo sapiens, UniProt P11712); experiment: CYP inhibition, 2C9; assay type: in vitro ADME; settings: most potently inhibited isoform was CYP-2C9
Chain of CYP-2C9 (P11712 whole entry, canonical isoform): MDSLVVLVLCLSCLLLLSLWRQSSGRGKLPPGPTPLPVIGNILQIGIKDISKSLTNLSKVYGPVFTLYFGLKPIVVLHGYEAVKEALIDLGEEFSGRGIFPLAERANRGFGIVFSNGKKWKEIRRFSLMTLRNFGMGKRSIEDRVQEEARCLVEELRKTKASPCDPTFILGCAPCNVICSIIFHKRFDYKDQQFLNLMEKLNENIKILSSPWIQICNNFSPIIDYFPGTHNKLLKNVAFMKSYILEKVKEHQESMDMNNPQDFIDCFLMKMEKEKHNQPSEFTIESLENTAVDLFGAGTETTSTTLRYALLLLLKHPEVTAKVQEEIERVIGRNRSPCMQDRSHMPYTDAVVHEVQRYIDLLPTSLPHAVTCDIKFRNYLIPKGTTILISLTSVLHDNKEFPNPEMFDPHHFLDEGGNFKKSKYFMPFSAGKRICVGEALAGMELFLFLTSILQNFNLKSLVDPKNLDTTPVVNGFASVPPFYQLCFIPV
Source text: Table 3 New Combinations from Free–Wilson Analysis | column: CYP IC50/μM ^c

[4] = Homo sapiens, PC-3, PC-3 cell line, read-out: pAKT S473 Cell IC50
[5] = Homo sapiens, p-AKT S473, PC-3 cells, mean of N runs, read-out: Cell pEC50 (converted)
[6] = PC-3 cell line, read-out: pAKT S473 Cell IC50
[7] = Homo sapiens, PC-3, read-out: Cell pEC50 (converted)
[8] = Homo sapiens, PC-3, read-out: pAKT S473 Cell IC50

Compound	IC50 [1, 4] [nM]	EC50 [1, 5] [nM]	PI3Kα Sel (PI3Kα) [x]	HLM Clint [2] [mL min^–1 kg^–1]	PI3Kα Sel (PI3Kα; Table 2, unit not given)	also measured
C[C@@]12COCCN1c1nc(-c3ccc(NC(=O)NC4CC4)cc3)ncc1N(CC1CC1)C2=O [3a]	38	38	100			
C[C@@]12COCCN1c1nc(-c3cnc4[nH]ccc4c3)ncc1N(CC1CC1)C2=O [3b]	51	51.3	48			
C[C@@]12COCCN1c1nc(-c3cnc4cc[nH]c4c3)ncc1N(CC1CC1)C2=O [3c]	91	91.2	26			
C[C@@]12COCCN1c1nc(-c3ccc(NC(=O)NC4CC4)cc3)ncc1N(C1CCOCC1)C2=O [4a]	42	41.7	63			
C[C@@]12COCCN1c1nc(-c3cnc4[nH]ccc4c3)ncc1N(C1CCOCC1)C2=O [4b]	62	61.7	23	6	23	
C[C@@]12COCCN1c1nc(-c3cnc4cc[nH]c4c3)ncc1N(C1CCOCC1)C2=O [4c]	100	105	13			
C[C@@]12COCCN1c1nc(-c3c[nH]c4ccccc34)ncc1N(C1CCOCC1)C2=O [4d]	≤ 30	29.5	120			IC50 [1, 6]: 30 nM
C[C@@]12COCCN1c1nc(-c3cccc4[nH]ccc34)ncc1N(C1CCOCC1)C2=O [4e]	≤ 30	21.4	110	10	110	IC50 [1, 6]: 21 nM; bioavailability (Rat PK (iv and po)): 91%; Cl (Rat PK (iv and po)): 15 mL min^–1 kg^–1; IC50 [3]: > 40000 nM
C[C@@]12COCCN1c1nc(-c3cncc4[nH]ccc34)ncc1N(C1CCOCC1)C2=O [4f]	17	16.6	84			
Cc1ccc(-c2ncc3c(n2)N2CCOC[C@@]2(C)C(=O)N3C2CCOCC2)c2cc[nH]c12 [4g]	26	25.7	450			
Cc1ncc(-c2ncc3c(n2)N2CCOC[C@@]2(C)C(=O)N3C2CCOCC2)c2cc[nH]c12 [4h]	48	47.9	270			
Cc1cccc2c(-c3ncc4c(n3)N3CCOC[C@@]3(C)C(=O)N4C3CCOCC3)c[nH]c12 [4i]	9	8.71	640			IC50 (CYP2C8): 1000 nM
C[C@@]12COCCN1c1nc(-c3cnc4[nH]ccc4c3)ncc1N(C1CCOC1)C2=O (some centres unmarked) [13a]	74	74.1		12	5	
COCCCN1C(=O)[C@]2(C)COCCN2c2nc(-c3cnc4[nH]ccc4c3)ncc21 [13b]	57	57.5		32	9	
C[C@@]12COCCN1c1nc(-c3cnc4[nH]ccc4c3)ncc1N(CCCO)C2=O [13c]	170	170		9	9	
C[C@@]12COCCN1c1nc(-c3cnc4[nH]ccc4c3)ncc1N(C1(CCO)CC1)C2=O [13d]	61	61.7		11	59	
C[C@@]12COCCN1c1nc(-c3cnc4[nH]ccc4c3)ncc1N(C1CCN(S(C)(=O)=O)CC1)C2=O [13e]				6	14	EC50 [1, 7]: 120 nM; IC50 [1, 8]: 120 nM
CC(=O)N1CCC(N2C(=O)[C@]3(C)COCCN3c3nc(-c4cccc5[nH]ccc45)ncc32)CC1 [14a]				6	120	EC50 [1, 7]: 55 nM; IC50 [1, 8]: 55 nM
C[C@@]12COCCN1c1nc(-c3cccc4[nH]ccc34)ncc1N([C@H]1CC[C@@H](O)CC1)C2=O [14b]	14	14.1		6	110	PI3Ka sel. (PI3Kα): 110 ×; IC50 (CYP2C8): 4000 nM; frac. abs. (Rat PK (iv and po)): 100%; bioavailability (Rat PK (iv and po)): 100%; Cl (Rat PK (iv and po)): 11 mL min^–1 kg^–1; Vd (Rat PK (iv and po)): 3.9 L/kg; Cmax (Rat PK (iv and po)): 1400 nM
Cc1ccc(-c2ncc3c(n2)N2CCOC[C@@]2(C)C(=O)N3[C@H]2CC[C@H](O)CC2)c2cc[nH]c12 [15a]				6		frac. abs. (Rat PK (iv and po)): 41%; bioavailability (Rat PK (iv and po)): 35%; Cl (Rat PK (iv and po)): 10 mL min^–1 kg^–1; Vd (Rat PK (iv and po)): 1.6 L/kg; Cmax (Rat PK (iv and po)): 570 nM; IC50 (CYP-2C9): 5000 nM
Cc1cccc2c(-c3ncc4c(n3)N3CCOC[C@@]3(C)C(=O)N4[C@H]3CC[C@H](O)CC3)c[nH]c12 [15b]				7		IC50 (CYP2C8): 3000 nM
Cc1ccc(-c2ncc3c(n2)N2CCOC[C@@]2(C)C(=O)N3[C@H]2CC[C@@H](O)CC2)c2cc[nH]c12 [15c]				8		IC50 (CYP2C8): 3000 nM
Cc1cccc2c(-c3ncc4c(n3)N3CCOC[C@@]3(C)C(=O)N4[C@H]3CC[C@@H](O)CC3)c[nH]c12 [15d]				7		IC50 (CYP2C8): 800 nM
Cc1cccc2c(-c3ncc4c(n3)N3CCOC[C@@]3(C)C(=O)N4C3(CCO)CC3)c[nH]c12 [15e]				6		EC50 [1, 7]: 4.57 nM; IC50 ([1]; Homo sapiens, PC-3, read-out: pAKT S473 Cell IC50, PC-3 cell line): 5 nM; IC50 (CYP2C8): 1300 nM
